Source: patent US20250320184A1 (SIRONAX LTD., priority 2022, published 2025)

These molecules were tested against T1, SARM1 (50-724) (Homo sapiens, UniProt Q6SZW1) (assay: SARM1 (50-724) enzymatic assay). Conditions: SARM1 inhibitory activity; purified SARM1 (50-724) 2 nM, 200 μM NMN activator, 100 μM NAD+ substrate, LC-MS/MS.
T1 sequence (Q6SZW1 50-724): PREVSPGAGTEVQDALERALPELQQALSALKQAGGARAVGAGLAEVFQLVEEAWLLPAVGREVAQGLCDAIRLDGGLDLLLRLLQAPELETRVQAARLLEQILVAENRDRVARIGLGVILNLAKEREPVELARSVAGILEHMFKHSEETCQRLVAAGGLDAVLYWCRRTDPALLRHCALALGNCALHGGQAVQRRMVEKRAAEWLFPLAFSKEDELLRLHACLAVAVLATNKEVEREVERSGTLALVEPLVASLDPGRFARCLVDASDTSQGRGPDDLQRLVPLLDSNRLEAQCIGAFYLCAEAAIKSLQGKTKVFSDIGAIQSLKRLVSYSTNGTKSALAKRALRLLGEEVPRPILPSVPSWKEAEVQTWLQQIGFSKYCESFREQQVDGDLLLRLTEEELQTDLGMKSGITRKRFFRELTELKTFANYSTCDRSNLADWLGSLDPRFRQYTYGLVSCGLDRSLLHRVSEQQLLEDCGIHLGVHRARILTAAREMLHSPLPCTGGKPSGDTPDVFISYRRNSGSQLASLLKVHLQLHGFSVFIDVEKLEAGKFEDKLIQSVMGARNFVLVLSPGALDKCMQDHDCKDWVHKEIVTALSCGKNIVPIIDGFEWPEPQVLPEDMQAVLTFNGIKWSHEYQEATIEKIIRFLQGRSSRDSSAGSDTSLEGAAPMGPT
Protocol: An enzymatic assay was performed in a 384-well plate using Dulbecco's phosphate-buffered saline (PBS) as the reaction buffer. […] The reaction was initiated by adding a mixture of 200 μM nicotinamide mononucleotide (NMN) as activator and 100 μM NAD^+ as substrate. After 1 h of incubation at room temperature, the reaction was terminated with 10 times volume of 70% acetonitrile, then centrifuged at 3800 rpm for 10 min.
In the case of `CC(Nc1ccc2cc[nH]c(=O)c2c1)c1nccc(Cl)c1Cl` (racemic) [Example 194, 7-((1-(3,4-dichloropyridin-2-yl)ethyl)amino)isoquinolin-1(2H)-one], the IC50 is reported as < 0.1 µM.
`CC(Nc1ccc2c(c1)C(=O)NCC2)c1cccc(Cl)c1Cl` (single isomer, unassigned) [Example 112] was tested, and the IC50 was < 0.1 µM.

Each molecule was assayed against T1, SARM1 (50-724) (assay: biochemical). Conditions: not given.
In the case of `CC1(C)CC(O)c2cc(NS(=O)(=O)c3cccc(Cl)c3Cl)ccc21` (racemic) [Compound 274, 2,3-dichloro-N-(3-hydroxy-1,1-dimethyl-2,3-dihydro-1H-inden-5-yl)benzenesulfonamide], the IC50 is reported as < 0.1 µM.
With `CC(Nc1ccc2ccn(C)c(=O)c2c1)c1c(Cl)cccc1Cl` (racemic) [Example 151, 7-((1-(2,6-dichlorophenyl)ethyl)amino)-2-methylisoquinolin-1(2H)-one] the IC50 was 0.1 to 0.5 µM.
In the case of `Cc1c2ccc(NC(C)c3nc(Cl)c(Cl)s3)cc2nn1[C@@H]1CC[C@H](O)C1` (stereo in doubt) [Compound 336, 3-(6-((1-(4,5-dichlorothiazol-2-yl)ethyl)amino)-3-methyl-2H-indazol-2-yl)cyclopentan-1-ol], the IC50 is reported as < 0.1 µM.
In the case of `Cc1cc(F)cc(C(Nc2ccc3c(c2)C(=O)NCC3)c2cccnc2)c1` (stereo not drawn) [Compound 178], the IC50 is reported as > 1 µM.
In the case of `Cc1cccc(C(C)Nc2ccc3c(c2)C(=O)NCC3)c1F` (racemic) [Example 99, 7-((1-(2-fluoro-3-methylphenyl)ethyl)amino)-3,4-dihydroisoquinolin-1(2H)-one], the IC50 is reported as > 1 µM.
With `CC(Nc1nc2ccccc2s1)c1nc(Cl)c(Cl)s1` (racemic) [Compound 344, N-(1-(4,5-dichlorothiazol-2-yl)ethyl)benzo[d]thiazol-2-amine] the IC50 was < 0.1 µM.
For `O=C1NCCc2ccc(NS(=O)(=O)N3C[C@@H]4CC[C@H]3C4)cc21` (racemic) [Example 167, N-(1-oxo-1,2,3,4-tetrahydroisoquinolin-7-yl)-2-azabicyclo[2.2.1]heptane-2-sulfonamide], the IC50 was > 1 µM.
In the case of `CC(Nc1cc(F)c2nc[nH]c(=O)c2c1)c1nc(Cl)c(Cl)s1` (racemic) [Compound 271, 6-((1-(4,5-dichlorothiazol-2-yl)ethyl)amino)-8-fluoroquinazolin-4(3H)-one], the IC50 is reported as < 0.1 µM.
`CC(Nc1ccc2ccn(CCO)c(=O)c2c1)c1nc(Cl)c(Cl)s1` (racemic) [Compound 305, 7-((1-(4,5-dichlorothiazol-2-yl)ethyl)amino)-2-(2-hydroxyethyl)isoquinolin-1(2H)-one] was tested, and the IC50 was < 0.1 µM.
`CC(Nc1ccc2snc(C(N)=O)c2c1)c1nc(Cl)c(Cl)s1` (racemic) [Compound 345, 5-[1-(4,5-dichlorothiazol-2-yl)ethylamino]-1,2-benzothiazole-3-carboxamide] was tested, and the IC50 was < 0.1 µM.
`CC(Nc1ccc2c(c1)NC(=O)OC2)c1cccc(Cl)c1Cl` (stereo not drawn) [Example 181, 7-((1-(2,3-dichlorophenyl)ethyl)amino)-1,4-dihydro-2H-benzo[d][1,3]oxazin-2-one] gave an IC50 of 0.1 to 0.5 µM.
In the case of `Cn1ncc2cc(NS(=O)(=O)c3cccc(Cl)c3Cl)ccc21` [Compound 79, 2,3-dichloro-N-(1-methyl-1H-indazol-5-yl)benzenesulfonamide], the IC50 is reported as 0.1 to 0.5 µM.
For `O=c1[nH]cnc2ccc(NS(=O)(=O)c3c(Cl)ccc(Cl)c3Cl)cc12` [Compound 82, 2,3,6-trichloro-N-(4-oxo-3H-quinazolin-6-yl)benzenesulfonamide], the IC50 was < 0.1 µM.
In the case of `CC(Nc1ccc2c(cnn2C)c1)c1cccc(Cl)c1Cl` (racemic) [Example 141, N-(1-(2,3-dichlorophenyl)ethyl)-1-methyl-1H-indazol-5-amine], the IC50 is reported as > 1 µM.
For `Cc1c2ccc(NC(C)c3nc(Cl)c(Cl)s3)cc2nn1C1CC(O)C1` (mixture of isomers) [Compound 339, 3-(6-((1-(4,5-dichlorothiazol-2-yl)ethyl)amino)-3-methyl-2H-indazol-2-yl)cyclobutan-1-ol], the IC50 was < 0.1 µM.
For `CC(Nc1cc(F)c2ncn(-c3n[nH]cc3Cl)c(=O)c2c1)c1nc(Cl)c(Cl)s1` (racemic) [Example 370, 3-(4-chloro-1H-pyrazol-3-yl)-6-((1-(4,5-dichlorothiazol-2-yl)ethyl)amino)-8-fluoroquinazolin-4(3H)-one], the IC50 was < 0.1 µM.
For `Cc1c2c(F)cc(NC(C)c3nc(Cl)c(Cl)s3)cc2nn1CC(N)=O` (single isomer, unassigned) [Compound 391], the IC50 was < 0.1 µM.
`Clc1cccc(C(Nc2ccc3cccnc3c2)C2CC2)c1Cl` (stereo not drawn) [Example 180, N-(cyclopropyl(2,3-dichlorophenyl)methyl)quinolin-7-amine] gave an IC50 of 0.1 to 0.5 µM.
For `CC(Nc1ccc2nc[nH]c(=O)c2c1)c1c(Cl)ccc(F)c1Cl` (single isomer, unassigned) [Example 201A], the IC50 was > 1 µM.
Work on `CC(Nc1ccc2cn[nH]c2c1)c1cccc(Cl)c1Cl` (stereo not drawn) [Example 12A, N-(1-(2,3-dichlorophenyl)ethyl)-1H-indazol-6-amine] yielded an IC50 of 0.5 to 1 µM.
For `Cc1nn(C(=O)c2ccncc2)c2cc(NC(C)c3nc(Cl)c(Cl)s3)ccc12` (racemic) [Compound 331, (6-((1-(4,5-dichlorothiazol-2-yl)ethyl)amino)-3-methyl-1H-indazol-1-yl)(pyridin-4-yl)methanone], the IC50 was < 0.1 µM.
With `CC(Nc1ccc2nc[nH]c(=O)c2c1)c1cccc(Cl)c1Cl` (single isomer, unassigned) [Example 152A] the IC50 was 0.5 to 1 µM.
